For series [1], the system named is Streptococcus sanguis ATCC 10556.
Series [2] deals with Candida albicans ATCC 10231.
Series [3] concerns Human red blood cells (RBCs). Put plainly: Hemolytic activity. Format: cell-based.
The subject of series [4] is Escherichia coli ATCC 25922.
The subject of series [5] is Staphylococcus aureus ATCC 29213.
Method: Escherichia coli ATCC 25922 and P. aeruginosa ATCC 27853 were used as Gram-negative (-) and Staphylococcus aureus ATCC 29213 as Gram-positive (+) bacteria. Bacteria were grown overnight at 37° C. in Mueller-Hinton (MH) broth. This culture was reinoculated and incubated at 37° C. to reach the exponential phase of bacteria growth, i.e., a final bacterial suspension containing 10^5 to 5×10^5 colony-forming units (CFU)/ml. The concentration of cells was established by plating 100 μl of different dilutions of the culture solution (e.g., 10^-2, 10^-3 and 10^-4) onto solid agar plates.
Following an overnight incubation at 37° C., the CFU thus formed were counted on each agar plate. In 96-well tissue culture plates, as control blanks, eight wells per plate contained only medium, while as a positive growth control, eight other wells contained medium plus cells.
The plates were incubated overnight at 37° C., and the optical density (OD) determined at 620 nm after different times of incubation.
Setting [6] is: Tables 2-5, concentration necessary to inhibit 50% growth.
Where [7] appears, read: Tables 11-13, lower parts (unnatural amino acids).
Where [8] appears, read: Tables 15-17, lower parts (unnatural amino acids).
The mark [9] stands for this setting: Tables 3-5, lower parts (unnatural amino acids).
The mark [10] stands for this setting: Tables 7-9, lower parts (unnatural amino acids).

Values after ≈ are worked out from the molar mass of the structure shown. Where two headings read alike, the source gives them in different places. Square brackets hold non-standard residues; d marks the D form. Peptide text beside a SMILES is read from it. * marks the point of attachment. Fmoc = O=C(OCC1c2ccccc2-c2ccccc21)*

Turning to `NCCCC[C@H](NC(=O)OCC1c2ccccc2-c2ccccc21)C(=O)N[C@@H](Cc1c[nH]c2ccccc12)C(=O)N[C@@H](CCCCN)C(=O)N[C@H](Cc1c[nH]c2ccccc12)C(N)=O` [(KFmoc)WKw-NH2] (Fmoc-KWK[dW]-NH2), in series [1] (Tables 10-13), the “IC50 against S. sanguis” value was determined as 4 µg/mL (≈ 4.61 µM). The “IC50 against C. albicans” value in series [2] (Tables 14-17) stood at 116 µg/mL (≈ 134 µM). Further, in series [3] (Tables 18-21), the “HD50 (concentration necessary to lyse 50% of the cells)” value is 32 µg/mL. Moreover, the “IC50 against E. coli” value in series [4] (setting [6]) worked out at 15 µg/mL (≈ 17.3 µM). The “IC50 against S. aureus” value in series [5] (Tables 6-9) is 4 µg/mL (≈ 4.61 µM).

Turning to `NCCCC[C@H](NC(=O)OCC1c2ccccc2-c2ccccc21)C(=O)N[C@@H](Cc1c[nH]c2ccccc12)C(=O)N[C@@H](Cc1ccc(O)cc1)C(=O)N[C@H](CCCCN)C(N)=O` [(KFmoc)WYk-NH2] (Fmoc-KWY[dK]-NH2), the “IC50 against S. sanguis” value in series [1] (Tables 10-13) was 5 µg/mL (≈ 5.92 µM). In series [2] (Tables 14-17), the “IC50 against C. albicans” value was 121 µg/mL (≈ 143 µM). Further, in series [3] (Tables 18-21), the “HD50 (concentration necessary to lyse 50% of the cells)” value worked out at 62 µg/mL. For the same compound, in series [4] (setting [6]), the “IC50 against E. coli” value was determined as 18 µg/mL (≈ 21.3 µM). The “IC50 against S. aureus” value in series [5] (Tables 6-9) was determined as 5 µg/mL (≈ 5.92 µM).

Consider `CC[C@@H](C)[C@@H](NC(=O)[C@H](CCCCN)NC(=O)[C@H](Cc1c[nH]c2ccccc12)NC(=O)[C@H](CCCCN)NC(=O)OCC1c2ccccc2-c2ccccc21)C(N)=O` [(KFmoc)WKi-NH2] (Fmoc-KWK[dI]-NH2), for which the “IC50 against S. sanguis” value in series [1] (Tables 10-13) came out at 8 µg/mL (≈ 10.1 µM). Besides, the “IC50 against C. albicans” value in series [2] (Tables 14-17) stood at 209 µg/mL (≈ 263 µM). For the same compound, the “HD50 (concentration necessary to lyse 50% of the cells)” value in series [3] (Tables 18-21) was determined as 296 µg/mL. Also, in series [4] (setting [6]), the “IC50 against E. coli” value came to 23 µg/mL (≈ 28.9 µM). Further, the “IC50 against S. aureus” value in series [5] (Tables 6-9) came to 9 µg/mL (≈ 11.3 µM).

For the compound `C[C@H](O)[C@@H](NC(=O)[C@H](CCCCN)NC(=O)[C@H](Cc1c[nH]c2ccccc12)NC(=O)[C@H](CCCCN)NC(=O)OCC1c2ccccc2-c2ccccc21)C(N)=O` [(KFmoc)WKt-NH2] (Fmoc-KWK[dT]-NH2), the “IC50 against S. sanguis” value in series [1] (Tables 10-13) stood at 7 µg/mL (≈ 8.94 µM). Besides, the “IC50 against C. albicans” value in series [2] (Tables 14-17) amounted to 292 µg/mL (≈ 373 µM). For the same compound, the “HD50 (concentration necessary to lyse 50% of the cells)” value in series [3] (Tables 18-21) stood at 435 µg/mL. In addition, the “IC50 against E. coli” value in series [4] (setting [6]) was determined as 55 µg/mL (≈ 70.2 µM). Moreover, the “IC50 against S. aureus” value in series [5] (Tables 6-9) came out at 10 µg/mL (≈ 12.8 µM).

With `NCCCC[C@H](NC(=O)OCC1c2ccccc2-c2ccccc21)C(=O)N[C@@H](Cc1c[nH]c2ccccc12)C(=O)N[C@@H](Cc1ccc(O)cc1)C(=O)N[C@H](CO)C(N)=O` [(KFmoc)WYs-NH2] (Fmoc-KWY[dS]-NH2), the “IC50 against S. sanguis” value in series [1] (Tables 10-13) is 5 µg/mL (≈ 6.22 µM). Further, the “IC50 against C. albicans” value in series [2] (Tables 14-17) amounted to 353 µg/mL (≈ 439 µM). In addition, the “HD50 (concentration necessary to lyse 50% of the cells)” value in series [3] (Tables 18-21) was determined as 27 µg/mL. Besides, in series [4] (setting [6]), the “IC50 against E. coli” value is 106 µg/mL (≈ 132 µM). In addition, in series [5] (Tables 6-9), the “IC50 against S. aureus” value was determined as 5 µg/mL (≈ 6.22 µM).

Consider (KFmoc)Wf(Bala)-NH2, for which, in series [1] (setting [7]), the “IC50 against S. sanguis” value worked out at 10 μg/m. In addition, the “IC50 against C. albicans” value in series [2] (setting [8]) is 170 μg/m. Besides, the “HD50 (concentration necessary to lyse 50% of the cells)” value in series [3] (Table 20, lower part) came to 360 μg/m. The “IC50 against E. coli” value in series [4] (setting [9]) stood at 70 μg/m. Further, the “IC50 against S. aureus” value in series [5] (setting [10]) turned out to be 11 μg/m.

As to `NCCCC[C@H](NC(=O)OCC1c2ccccc2-c2ccccc21)C(=O)N[C@@H](Cc1c[nH]c2ccccc12)C(=O)N[C@@H](CCCCN)C(=O)N1CCC[C@@H]1C(N)=O` [(KFmoc)WKp-NH2] (Fmoc-KWK[dP]-NH2), the “IC50 against S. sanguis” value in series [1] (Tables 10-13) turned out to be 5 µg/mL (≈ 6.42 µM). The “IC50 against C. albicans” value in series [2] (Tables 14-17) was 251 µg/mL (≈ 322 µM). Further, the “HD50 (concentration necessary to lyse 50% of the cells)” value in series [3] (Tables 18-21) was 437 µg/mL. In addition, the “IC50 against E. coli” value in series [4] (setting [6]) was 39 µg/mL (≈ 50.1 µM). The “IC50 against S. aureus” value in series [5] (Tables 6-9) came out at 8 µg/mL (≈ 10.3 µM).

Regarding `N=C(N)NCCC[C@@H](NC(=O)[C@H](CCCCN)NC(=O)[C@H](Cc1c[nH]c2ccccc12)NC(=O)[C@H](CCCCN)NC(=O)OCC1c2ccccc2-c2ccccc21)C(N)=O` [(KFmoc)WKr-NH2] (Fmoc-KWK[dR]-NH2), the “IC50 against S. sanguis” value in series [1] (Tables 10-13) amounted to 5 µg/mL (≈ 5.97 µM). Moreover, the “IC50 against C. albicans” value in series [2] (Tables 14-17) worked out at 98 µg/mL (≈ 117 µM). Also, in series [3] (Tables 18-21), the “HD50 (concentration necessary to lyse 50% of the cells)” value was 324 µg/mL. In series [4] (setting [6]), the “IC50 against E. coli” value amounted to 66 µg/mL (≈ 78.8 µM). For the same compound, the “IC50 against S. aureus” value in series [5] (Tables 6-9) turned out to be 7 µg/mL (≈ 8.35 µM).

With `CC(C)C[C@@H](NC(=O)[C@H](CCCCN)NC(=O)[C@H](Cc1c[nH]c2ccccc12)NC(=O)[C@H](CCCCN)NC(=O)OCC1c2ccccc2-c2ccccc21)C(N)=O` [(KFmoc)WKl-NH2] (Fmoc-KWK[dL]-NH2), in series [1] (Tables 10-13), the “IC50 against S. sanguis” value was determined as 5 µg/mL (≈ 6.29 µM). Besides, the “IC50 against C. albicans” value in series [2] (Tables 14-17) amounted to 121 µg/mL (≈ 152 µM). Also, the “HD50 (concentration necessary to lyse 50% of the cells)” value in series [3] (Tables 18-21) was determined as 166 µg/mL. Besides, the “IC50 against E. coli” value in series [4] (setting [6]) stood at 20 µg/mL (≈ 25.2 µM). Further, the “IC50 against S. aureus” value in series [5] (Tables 6-9) is 5 µg/mL (≈ 6.29 µM).

Turning to `NCCCC[C@H](NC(=O)OCC1c2ccccc2-c2ccccc21)C(=O)N[C@@H](Cc1c[nH]c2ccccc12)C(=O)N[C@@H](Cc1ccc(O)cc1)C(=O)N[C@H](Cc1c[nH]cn1)C(N)=O` [(KFmoc)WYh-NH2] (Fmoc-KWY[dH]-NH2), the “IC50 against S. sanguis” value in series [1] (Tables 10-13) stood at 8 µg/mL (≈ 9.37 µM). For the same compound, the “IC50 against C. albicans” value in series [2] (Tables 14-17) is 192 µg/mL (≈ 225 µM). In series [3] (Tables 18-21), the “HD50 (concentration necessary to lyse 50% of the cells)” value turned out to be 73 µg/mL. In addition, the “IC50 against E. coli” value in series [4] (setting [6]) turned out to be 40 µg/mL (≈ 46.8 µM). In addition, in series [5] (Tables 6-9), the “IC50 against S. aureus” value amounted to 7 µg/mL (≈ 8.2 µM).

With `N=C(N)NCCC[C@@H](NC(=O)[C@H](Cc1ccc(O)cc1)NC(=O)[C@H](Cc1c[nH]c2ccccc12)NC(=O)[C@H](CCCCN)NC(=O)OCC1c2ccccc2-c2ccccc21)C(N)=O` [(KFmoc)WYr-NH2] (Fmoc-KWY[dR]-NH2), the “IC50 against S. sanguis” value in series [1] (Tables 10-13) came out at 4 µg/mL (≈ 4.58 µM). In addition, the “IC50 against C. albicans” value in series [2] (Tables 14-17) was 109 µg/mL (≈ 125 µM). Besides, in series [3] (Tables 18-21), the “HD50 (concentration necessary to lyse 50% of the cells)” value amounted to 31 µg/mL. Also, the “IC50 against E. coli” value in series [4] (setting [6]) was determined as 16 µg/mL (≈ 18.3 µM). For the same compound, in series [5] (Tables 6-9), the “IC50 against S. aureus” value is 4 µg/mL (≈ 4.58 µM).

For the compound `NCCCC[C@H](NC(=O)OCC1c2ccccc2-c2ccccc21)C(=O)N[C@@H](Cc1c[nH]c2ccccc12)C(=O)N[C@H](Cc1ccccc1)C(=O)N1CCC[C@@H]1C(N)=O` [(KFmoc)Wfp-NH2] (Fmoc-KW[dF][dP]-NH2), the “IC50 against S. sanguis” value in series [1] (Tables 10-13) came to 6 µg/mL (≈ 7.52 µM). Also, in series [2] (Tables 14-17), the “IC50 against C. albicans” value is 347 µg/mL (≈ 435 µM). In addition, the “HD50 (concentration necessary to lyse 50% of the cells)” value in series [3] (Tables 18-21) was 65 µg/mL. The “IC50 against E. coli” value in series [4] (setting [6]) is 30 µg/mL (≈ 37.6 µM). In addition, the “IC50 against S. aureus” value in series [5] (Tables 6-9) is 7 µg/mL (≈ 8.77 µM).

In the case of `CSCC[C@@H](NC(=O)[C@H](CCCCN)NC(=O)[C@H](Cc1c[nH]c2ccccc12)NC(=O)[C@H](CCCCN)NC(=O)OCC1c2ccccc2-c2ccccc21)C(N)=O` [(KFmoc)WKm-NH2] (Fmoc-KWK[dM]-NH2), in series [1] (Tables 10-13), the “IC50 against S. sanguis” value came to 7 µg/mL (≈ 8.61 µM). Besides, the “IC50 against C. albicans” value in series [2] (Tables 14-17) was determined as 163 µg/mL (≈ 200 µM). Also, the “HD50 (concentration necessary to lyse 50% of the cells)” value in series [3] (Tables 18-21) came out at 178 µg/mL. Moreover, in series [4] (setting [6]), the “IC50 against E. coli” value was 41 µg/mL (≈ 50.4 µM). In series [5] (Tables 6-9), the “IC50 against S. aureus” value turned out to be 7 µg/mL (≈ 8.61 µM).

Turning to (KFmoc)Wf(aAIB)-NH2, the “IC50 against S. sanguis” value in series [1] (setting [7]) amounted to 4 μg/m. Further, in series [2] (setting [8]), the “IC50 against C. albicans” value is 62 μg/m. Moreover, in series [3] (Table 20, lower part), the “HD50 (concentration necessary to lyse 50% of the cells)” value is 383 μg/m. Besides, the “IC50 against E. coli” value in series [4] (setting [9]) is 27 μg/m. Also, the “IC50 against S. aureus” value in series [5] (setting [10]) is listed as 4 μg/m.

On to (KFmoc)WK(dOrn)-NH2, for which, in series [1] (Tables 10-13), the “IC50 against S. sanguis” value stood at 5 µg/mL. The “IC50 against C. albicans” value in series [2] (Tables 14-17) was found to be 196 µg/mL. Besides, in series [3] (Tables 18-21), the “HD50 (concentration necessary to lyse 50% of the cells)” value came out at 369 µg/mL. In series [4] (setting [6]), the “IC50 against E. coli” value is 69 µg/mL. Besides, the “IC50 against S. aureus” value in series [5] (Tables 6-9) worked out at 5 µg/mL.
